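Growth conditions: 96-well plates. Treatment: test compound, 48 hours, 5 concentrations. Analysis: linear interpolation between bracketing concentrations; unreached endpoints set to highest concentration. Here, GI50 denotes the concentration required for 50% inhibition of growth. TGI: concentration producing complete growth inhibition.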
Assays:
Experiment in all cases: NCI tumour cell line growth inhibition, 48 h
[1] = system: A498 renal
[2] = system: BT-549 breast
[3] = system: DU-145 prostate
[4] = system: HS 578T breast
[5] = system: MDA-N
[6] = system: NCI-H226 lung
[7] = system: OVCAR-8 ovarian
[8] = system: SF-268 CNS
[9] = system: SK-MEL-5 melanoma
[10] = system: RPMI-8226 leukemia

SMILES	TGI [1] [µM]	TGI [2] [µM]	TGI [3] [µM]	TGI [4] [µM]	TGI [5] [µM]	TGI [6] [µM]	TGI [7] [µM]	TGI [8] [µM]	TGI [9] [µM]	TGI [10] [µM]	GI50 [1] [µM]	GI50 [2] [µM]	GI50 [3] [µM]	GI50 [4] [µM]	GI50 [6] [µM]	GI50 [7] [µM]	GI50 [10] [µM]	GI50 [8] [µM]	GI50 [9] [µM]
C=C1C(=O)[C@@]23CC[C@@H]4[C@@]5(C)CCC[C@@]4(OC5=O)[C@@]2(C)CC[C@@H]1C3	11.8	3.24	12.2	> 54	> 100	9.15	8.54	6.12	3.49	–	–	–	–	–	–	–	–	–	–
Cn1ncc2c(NCc3ccccc3)ncnc21	> 100	> 100	> 100	–	> 100	> 100	> 100	> 100	> 100	> 100	–	–	–	–	–	–	–	–	–
CC1=C(C#N)c2nc3ccccc3n2C(=O)C1(C)CCO (stereo unspecified)	> 100	> 100	> 100	> 100	> 100	> 100	> 100	> 100	> 100	–	–	–	–	–	–	–	–	–	–
CCN(CC)c1ccc(/C=C/c2ccnc3ccccc23)cc1	> 100	> 100	> 100	> 100	> 100	–	–	> 100	> 100	> 100	–	–	–	–	–	–	–	–	–
CC(C)(C)N=C(N)NC#N	–	> 100	> 100	> 100	> 100	–	> 100	> 100	> 100	> 100	–	–	–	–	–	–	–	–	–
N#CC(c1ccccc1)N(CCOCCOCCN(C(=O)c1ccccc1)C(C#N)c1ccccc1)C(=O)c1ccccc1 (stereo unspecified)	> 100	> 100	> 100	> 100	> 100	> 100	> 100	> 100	> 100	–	–	–	–	–	–	–	–	–	–
CN1CCN(Cc2cc3c(nn2)-c2ccccc2C3=O)CC1	–	> 100	> 100	> 100	52.3	> 100	> 100	> 100	35.1	> 100	–	–	–	–	–	–	–	–	–
COc1cccc2c1OC(c1cccc3ccccc13)C([N+](=O)[O-])=C2 (stereo unspecified)	–	2.74	8.9	11	10.3	4.32	20.9	13.3	2.96	> 100	–	–	–	–	–	–	–	–	–
CC(C(=O)COCc1ccccc1)P1(=O)OC(C)(C)CN1C(C)(C)C (stereo unspecified)	> 100	–	> 100	> 100	> 100	> 100	> 100	> 100	> 100	> 100	–	–	–	–	–	–	–	–	–
O=C(NN1C(=O)CS(=O)(=O)C1c1ccc(C(F)(F)F)cc1)c1ccncc1 (stereo unspecified)	> 100	–	–	–	–	> 100	–	> 100	> 100	> 100	–	–	–	–	–	–	–	–	–
CC1(C)CCc2c(ccc(C(=O)/C=C/c3ccc(O)cc3)c2O)O1	29.8	22.3	18.6	27.2	–	22.3	22	23.2	22	20.8	–	–	–	–	–	–	–	–	–
COc1cc(C=O)ccc1O	–	–	> 100	> 100	> 100	> 100	> 100	> 100	> 100	> 100	–	–	–	–	–	–	–	–	–
Cn1c2ccccc2c2c(=S)c3ccccc3ccc21	> 100	> 100	> 100	> 100	> 100	> 100	> 100	> 100	> 100	–	–	–	–	–	–	–	–	–	–
O=C1C(=Nc2ccc(Nc3ccccc3)cc2)Oc2ccccc21	21	–	21	–	7.16	16.8	6.07	9.73	16.1	–	–	–	–	–	–	–	–	–	–
COc1ccc(CC(N)=O)cc1OC	> 1250	–	–	–	–	> 1250	> 125	> 1250	> 1250	> 1250	–	–	–	–	–	–	–	–	–
CCOC(=O)CNC(=O)NC12CC3CC(CC(C3)C1)C2	462	–	–	–	–	> 473	> 550	> 550	330	> 550	–	–	–	–	–	–	–	–	–
Cc1nc2ccccc2c(-n2cccn2)c1CCn1cccn1	> 100	–	> 100	> 100	> 100	> 100	> 100	> 100	> 100	> 100	–	–	–	–	–	–	–	–	–
COc1cc2c(cc1OCCCCCN1CCN(c3ncnc4ccccc34)CC1)N=CC1CCCN1C2=O (stereo unspecified)	0.034	0.0628	0.97	0.0842	–	0.0479	> 81.9	2.07	0.0338	0.035	0.018	0.0229	0.0271	0.0275	0.0203	0.0334	< 0.0138	0.0349	0.018
O=C(NCCCl)O/N=C/c1cccnc1	> 100	–	–	–	–	> 100	> 100	> 100	> 100	> 100	78.2	–	–	–	–	–	–	–	–
CC(C)C1=CC23CCC4C(C)(C(=O)O)CCCC4(C)C2CC1C1C(=O)N(CCCCCCN2C(=O)C4C5CC6C7(C)CCCC(C)(C(=O)O)C7CCC6(C=C5C(C)C)C4C2=O)C(=O)C13 (stereo unspecified)	24.3	–	–	34.9	28.4	–	24.9	26.8	26.9	> 100	–	–	–	–	–	–	–	–	–
COc1cc2c(cc1OCCCN1C(=O)c3cccc4cccc(c34)C1=O)N=C[C@@H]1CCCN1C2=O	> 100	> 100	> 100	–	> 100	> 100	> 100	> 100	> 63.6	> 50.2	–	–	–	–	–	–	–	–	–
COC(=O)c1ccccc1CC1Cc2cccc(C)c2C1=O (stereo unspecified)	–	> 100	> 100	> 100	> 100	71.5	> 100	> 100	37.5	–	–	–	–	–	–	–	–	–	–
COc1ccc(/C=N/NC(=O)c2ccc(O)c(CN(C)C)c2)cc1	37.4	> 100	> 100	> 100	> 100	> 100	> 100	> 100	> 100	–	–	–	–	–	–	–	–	–	–
